Measurements published in PMC11879040, “Advancing systemic toxicity risk assessment: Evaluation of a NAM-based toolbox approach” (Toxicological Sciences, 2024).
Read-outs that look alike come from different tables or passages of the source.

How the values were obtained:
[1] = tested on: Thyroid hormone receptor alpha, THRA (h); assay: IPP THRA coactivator recruitment (agonist); format: biochemical, human; details: 100 uM; agonist; T3; * denotes assay interference (2-Amino-6-chloro-4-nitrophenol, HC Red 3)
Tubulin (r) = assay: IPP Tubulin binding; design: species or system rat; details: 100 uM; ligand/control Colchicine
[2] = cited from earlier work
[3] = tested on: Glutamate receptor ionotropic NMDA 1 non-selective, GRIN1 (r); details: IPP screening at 100 uM; control CGS 19755
[4] = cited from earlier work; remark: listed apart in the source
[5] = skin penetration (PBK input)
[6] = per chemical see Peff Reference, cited from earlier work
HepaRG cells = assay: High-throughput transcriptomics (HTTr, TempO-Seq), HepaRG, 24 h; format: cell-based, human; details: for pod_httr_bifrost PoD / podl_path_minbmd PoD: HepaRG; for pod_httr_bifrost PoD: HTTr BIFROST PoD; for podl_path_minbmd PoD: HTTr minimum pathway BMD(L)
Description: (§1) HepG2, HepaRG, and MCF7 cells were treated with each compound for 24 h across a dose range of 7 concentrations and lysed using TempO-Seq lysis buffer (BioSpyder Technologies, proprietary kit, see [Middleton et al. 2022] for method details). Sequencing was performed using TempO-Seq (BioClavis) version 2 of the human whole transcriptome panel and analyzed as described previously in Middleton et al.

HepG2 cells [7] = assay: High-throughput transcriptomics (HTTr, TempO-Seq), HepG2, 24 h; format: cell-based, human; details: HepG2; for pod_httr_bifrost PoD: HTTr BIFROST PoD; for podl_path_minbmd PoD: HTTr minimum pathway BMD(L)
Description: as §1

HepG2 cells [8] = assay: Cell stress panel (CSP), 24 h, 8 concentrations, BIFROST global PoD; format: cell-based; details: HepG2; cell stress panel PoD
Description: Compounds were tested using the previously developed cell stress panel ([Hatherell et al. 2020]) and the expanded biomarker panel outlined in Middleton et al. HepG2 cells were treated with all compounds for 24 h across 8 concentrations prior to biomarker analysis. The same plate layout and number of replicates (3 biological and 2 technical) were used as previously for each assay within the panel.

[9] = target: Voltage-dependent L-type Ca2+ channel (dihydropyridine site), CACNA1C (r) (Rattus norvegicus, UniProt P22002); format: binding
[10] = tested on: Potassium Voltage-Gated Channel Kv non-selective, KCNQ1 (r); assay: IPP KCNQ1 binding (antagonist radioligand); design: species or system rat
MCF7 cells = assay: High-throughput transcriptomics (HTTr, TempO-Seq), MCF7, 24 h; format: cell-based, human; details: MCF-7; for pod_httr_bifrost PoD: HTTr BIFROST PoD; for podl_path_minbmd PoD: HTTr minimum pathway BMD(L)
Description: as §1

[11] = tested on: Sodium channel protein type 5 subunit alpha (site 2), SCN5A (r); format: binding, rat
[12] = Assignment of risk classifications to benchmark chemical-exposure scenarios; details: from table S1
monkey = details: monkey; 52 weeks; ref ToxRefDB/Paul-Friedman et al. (2020)/regulatory opinions; cited from earlier work
[13] = tested on: Gamma-aminobutyric acid receptor subunit alpha-1 BZD site, GABRA1A (r); format: binding, rat; details: IPP screening at 100 uM; control diazepam
[14] = PBK model plasma Cmax estimate (Gastroplus 9.8; levels L1, L2, L3); design: species or system human; details: therapeutic uses
[15] = target: T1, Adenosine receptor A2a, ADORA2A (h) (Homo sapiens, UniProt P29274); assay: IPP ADORA2A binding (agonist radioligand); details: IPP screening at 100 uM; control NECA
T1 construct: purchased Eurofins Cerep (SafetyScreen44-based IPP panel)

[16] = human
[17] = target: Potassium voltage-gated channel subfamily H member 2 hERG, KCNH2 (h) (Homo sapiens, UniProt Q12809); details: human
[18] = target: vitamin K epoxide reductase enzyme (VKORC1); details: ref Bevans et al. 2013, cited from earlier work
[19] = IV 200 mg slow IV (3min), 8 healthy male, validation, ref Martin et al. 1990
[20] = IV 400 mg slow IV (3min), 8 healthy male, validation, ref Martin et al. 1990
[21] = IV 800 mg infusion over five to seven minutes, 12 healthy, calibration, ref Pavliv et al. 2011
[22] = Oral 400 mg tablet, fasted, 18 healthy elderly, validation, ref Albert et al. 1984
[23] = Oral 500 mg ibuprofen lysine tablet (equivalent to 292.6 mg ibuprofen free acid), fasted, 8 healthy male, validation, ref Martin et al. 1990
[24] = Oral 800 mg tablet, fasted, 12 healthy, calibration, ref Pavliv et al. 2011
[25] = Oral 800 mg tablet, fasted, 13 healthy, validation, ref Duxin et al. 2017
[26] = Oral 800 mg tablet, fasted, 18 healthy elderly, validation, ref Albert et al. 1984
[27] = Oral 800 mg tablet, fed, 10 healthy, validation, ref Duxin et al. 2017
[28] = Oral 1200 mg tablet, fasted, 18 healthy elderly, validation, ref Albert et al. 1984
[29] = PBK level L2, optimised based on [21] (glutaraldehyde), [23] (HCRed3), [28] (ibuprofen)
[30] = PBK level L3, optimised based on [28]
[31] = human, PO 15 mg, tablet, 8 male, Fasted, calibration, ref Stirling Y, et al. British Journal of Haematology (1982) 51: 37-46

Sequence of Voltage-dependent L-type Ca2+ channel (dihydropyridine site), CACNA1C (r) (P22002 whole entry): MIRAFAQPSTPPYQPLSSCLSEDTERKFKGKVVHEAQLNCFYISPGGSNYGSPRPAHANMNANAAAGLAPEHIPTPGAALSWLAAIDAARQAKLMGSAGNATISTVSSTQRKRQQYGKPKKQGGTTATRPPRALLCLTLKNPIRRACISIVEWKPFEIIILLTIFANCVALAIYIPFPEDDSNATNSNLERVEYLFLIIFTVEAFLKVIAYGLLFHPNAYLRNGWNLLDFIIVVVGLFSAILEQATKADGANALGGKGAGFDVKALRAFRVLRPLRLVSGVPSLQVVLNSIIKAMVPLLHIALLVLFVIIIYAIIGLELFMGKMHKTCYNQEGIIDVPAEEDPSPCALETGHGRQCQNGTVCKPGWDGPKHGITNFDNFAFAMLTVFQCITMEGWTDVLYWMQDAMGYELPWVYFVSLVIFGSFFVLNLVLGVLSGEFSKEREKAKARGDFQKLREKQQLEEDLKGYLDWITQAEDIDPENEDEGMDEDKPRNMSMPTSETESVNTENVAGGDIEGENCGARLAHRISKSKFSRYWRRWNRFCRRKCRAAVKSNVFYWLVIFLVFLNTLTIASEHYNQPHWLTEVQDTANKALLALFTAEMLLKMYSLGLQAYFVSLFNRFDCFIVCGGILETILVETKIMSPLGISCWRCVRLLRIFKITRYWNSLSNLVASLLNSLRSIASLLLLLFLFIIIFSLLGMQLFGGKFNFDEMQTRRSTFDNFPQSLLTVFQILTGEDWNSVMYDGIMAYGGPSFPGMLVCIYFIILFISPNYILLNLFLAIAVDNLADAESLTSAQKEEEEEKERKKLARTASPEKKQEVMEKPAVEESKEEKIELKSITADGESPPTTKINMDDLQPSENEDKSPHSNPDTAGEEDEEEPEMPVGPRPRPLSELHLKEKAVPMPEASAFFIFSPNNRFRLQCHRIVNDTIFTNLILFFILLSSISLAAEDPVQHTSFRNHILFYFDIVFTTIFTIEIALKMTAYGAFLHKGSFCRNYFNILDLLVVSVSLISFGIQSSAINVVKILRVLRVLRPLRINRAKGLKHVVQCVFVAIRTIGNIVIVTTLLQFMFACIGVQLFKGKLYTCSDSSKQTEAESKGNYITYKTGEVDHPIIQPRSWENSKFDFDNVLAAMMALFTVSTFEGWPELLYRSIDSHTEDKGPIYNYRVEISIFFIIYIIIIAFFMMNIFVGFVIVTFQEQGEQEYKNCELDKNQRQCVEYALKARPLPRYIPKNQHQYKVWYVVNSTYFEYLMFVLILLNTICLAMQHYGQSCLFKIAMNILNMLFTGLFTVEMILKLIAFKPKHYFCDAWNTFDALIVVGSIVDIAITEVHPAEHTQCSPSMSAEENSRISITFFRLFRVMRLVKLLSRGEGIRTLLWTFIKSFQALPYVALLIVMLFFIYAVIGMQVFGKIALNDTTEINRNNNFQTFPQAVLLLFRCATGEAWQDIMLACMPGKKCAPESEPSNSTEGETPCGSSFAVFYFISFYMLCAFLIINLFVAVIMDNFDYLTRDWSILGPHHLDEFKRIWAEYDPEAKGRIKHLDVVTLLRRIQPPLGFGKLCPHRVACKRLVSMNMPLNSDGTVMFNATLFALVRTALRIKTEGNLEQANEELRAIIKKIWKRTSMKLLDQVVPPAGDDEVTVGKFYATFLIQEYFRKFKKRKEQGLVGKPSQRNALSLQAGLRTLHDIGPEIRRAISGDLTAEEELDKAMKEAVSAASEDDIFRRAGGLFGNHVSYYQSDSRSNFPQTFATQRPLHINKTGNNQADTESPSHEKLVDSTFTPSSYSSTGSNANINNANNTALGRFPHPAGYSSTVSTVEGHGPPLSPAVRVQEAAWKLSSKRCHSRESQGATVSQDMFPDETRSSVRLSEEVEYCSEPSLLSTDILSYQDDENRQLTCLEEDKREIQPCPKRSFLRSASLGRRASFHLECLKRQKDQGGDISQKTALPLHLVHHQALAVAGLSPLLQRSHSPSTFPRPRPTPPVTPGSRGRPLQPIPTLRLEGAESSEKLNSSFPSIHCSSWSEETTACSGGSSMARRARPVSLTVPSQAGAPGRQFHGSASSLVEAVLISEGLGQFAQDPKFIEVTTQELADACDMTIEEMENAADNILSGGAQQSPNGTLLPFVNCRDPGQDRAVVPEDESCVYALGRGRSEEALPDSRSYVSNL
Sequence of Potassium voltage-gated channel subfamily H member 2 hERG, KCNH2 (h) (Q12809 whole entry): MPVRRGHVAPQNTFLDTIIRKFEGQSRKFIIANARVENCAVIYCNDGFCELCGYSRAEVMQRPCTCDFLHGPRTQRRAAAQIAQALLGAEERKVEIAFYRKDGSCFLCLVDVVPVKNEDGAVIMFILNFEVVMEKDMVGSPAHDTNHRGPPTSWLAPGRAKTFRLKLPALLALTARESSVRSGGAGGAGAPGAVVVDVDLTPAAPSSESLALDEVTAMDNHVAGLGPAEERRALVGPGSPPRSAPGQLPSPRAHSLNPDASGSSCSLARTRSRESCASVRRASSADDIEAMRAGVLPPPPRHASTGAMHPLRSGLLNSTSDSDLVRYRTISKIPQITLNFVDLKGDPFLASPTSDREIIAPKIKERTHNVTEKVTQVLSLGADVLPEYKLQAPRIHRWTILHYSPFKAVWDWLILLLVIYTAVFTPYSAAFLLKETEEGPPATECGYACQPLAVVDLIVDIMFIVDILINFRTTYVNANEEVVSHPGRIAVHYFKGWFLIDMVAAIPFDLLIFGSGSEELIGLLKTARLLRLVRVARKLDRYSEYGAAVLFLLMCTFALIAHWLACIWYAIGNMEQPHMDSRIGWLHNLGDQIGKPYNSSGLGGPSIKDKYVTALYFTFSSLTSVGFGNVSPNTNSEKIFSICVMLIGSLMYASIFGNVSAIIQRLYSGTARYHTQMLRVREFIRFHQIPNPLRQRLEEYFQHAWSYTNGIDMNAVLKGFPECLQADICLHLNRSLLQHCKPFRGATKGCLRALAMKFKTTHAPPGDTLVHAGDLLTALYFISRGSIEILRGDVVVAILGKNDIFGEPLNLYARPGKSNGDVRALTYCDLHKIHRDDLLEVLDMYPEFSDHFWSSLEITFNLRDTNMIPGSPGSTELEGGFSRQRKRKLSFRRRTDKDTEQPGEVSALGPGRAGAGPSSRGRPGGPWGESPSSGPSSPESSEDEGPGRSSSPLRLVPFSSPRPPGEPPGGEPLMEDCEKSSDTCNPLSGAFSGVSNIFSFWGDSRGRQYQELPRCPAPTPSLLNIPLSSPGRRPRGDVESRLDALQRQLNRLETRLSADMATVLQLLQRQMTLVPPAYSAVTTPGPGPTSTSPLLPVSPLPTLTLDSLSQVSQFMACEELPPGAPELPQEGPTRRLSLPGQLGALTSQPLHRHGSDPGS
T1 sequence (P29274 whole entry): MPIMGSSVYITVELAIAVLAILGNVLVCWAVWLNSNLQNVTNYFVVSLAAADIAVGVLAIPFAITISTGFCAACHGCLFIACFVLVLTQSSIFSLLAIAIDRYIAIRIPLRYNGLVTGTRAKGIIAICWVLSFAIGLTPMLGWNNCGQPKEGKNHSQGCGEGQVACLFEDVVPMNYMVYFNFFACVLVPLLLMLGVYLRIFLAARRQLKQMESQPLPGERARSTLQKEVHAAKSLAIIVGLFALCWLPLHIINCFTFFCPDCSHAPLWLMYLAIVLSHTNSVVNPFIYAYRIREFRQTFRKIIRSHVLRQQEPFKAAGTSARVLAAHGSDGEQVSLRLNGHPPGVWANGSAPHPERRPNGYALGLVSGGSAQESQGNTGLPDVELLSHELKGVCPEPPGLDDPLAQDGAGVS

## CC(C)Cc1ccc(C(C)C(=O)O)cc1 (centres unmarked) [Ibuprofen, 2-[4-(2-Methylpropyl)phenyl]propanoic acid]
[1]
  IPP screening %, Coactivator recruitment: 1.0%
Tubulin (r)
  IPP screening %, Specific binding: -14.0%
[2]; [19]
  Reported AUC0-t: 59.96 µg·h/mL
  Reported cmax: 39 µg/mL
[2]; [20]
  Reported AUC0-t: 117.4 µg·h/mL
  Reported cmax: 79.75 µg/mL
[2]; [21]
  Reported AUC0-t: 187.4 µg·h/mL
  Reported cmax: 120.2 µg/mL
[2]; [22]
  Reported AUC0-t: 128 µg·h/mL
  Reported cmax: 32.5 µg/mL
[2]; [23]
  Reported AUC0-t: 85.59 µg·h/mL
  Reported cmax: 30.32 µg/mL
[2]; [24]
  Reported AUC0-t: 187.4 µg·h/mL
  Reported cmax: 57.3 µg/mL
[2]; [25]
  Reported AUC0-t: 252 µg·h/mL
  Reported cmax: 41.52 µg/mL
[2]; [26]
  Reported AUC0-t: 236.6 µg·h/mL
  Reported cmax: 60.2 µg/mL
[2]; [27]
  Reported AUC0-t: 223 µg·h/mL
  Reported cmax: 25.22 µg/mL
[2]; [28]
  Reported AUC0-t: 279.2 µg·h/mL
  Reported cmax: 71.1 µg/mL
[3]
  Specific binding: 7.2%
[4]; PBK level L2, single value or median, ref [2],[4],[6],[7],[8],[10],[11],[15],[18],[27],[34]
  Fup: 1.3%
[4]; PBK level L3, single value or median, ref [2],[4],[6],[7],[8],[10],[11],[15],[18],[27],[34]
  Fup: 1.3%
[5]; [29]
  Diffusivity Dermis: 1.00E-06 cm^2/s
  Diffusivity Stratum Corneum: 1.00E-09 cm^2/s
  Diffusivity Viable Epidermis: 1.00E-06 cm^2/s
[5]; PBK level L2, optimised based on [21] (glutaraldehyde), [23] (HCRed3), [28] (ibuprofen), no reference printed (DEET)
  Partition Coefficient Stratum Corneum/Water: 1500.00
[5]; PBK level L2, optimised based on [21] (glutaraldehyde), [28] (ibuprofen)
  Partition Coefficient Viable Epidermis/Water: 700.00
[5]; PBK level L2, optimised based on [23] (HCRed3), [28] (ibuprofen)
  Diffusivity Vehicle: 1.00E-05 cm^2/s
[5]; PBK level L2, optimised based on [28]
  Partition Coefficient Vehicle/Water: 10.00
[5]; [30]
  Diffusivity Dermis: 1.00E-06 cm^2/s
  Diffusivity Stratum Corneum: 1.00E-09 cm^2/s
  Diffusivity Vehicle: 1.00E-05 cm^2/s
  Diffusivity Viable Epidermis: 1.00E-06 cm^2/s
  Partition Coefficient Stratum Corneum/Water: 1500.00
  Partition Coefficient Vehicle/Water: 10.00
  Partition Coefficient Viable Epidermis/Water: 700.00
[6]; PBK level L2, ref [3],[4],[11]
  Peff: 5.034 cm/s x E-04
[6]; PBK level L3, ref [4],[11]
  Peff: 5.034 cm/s x E-04
HepaRG cells
  pod_httr_bifrost PoD: 0.1626 µM
  podl_path_minbmd PoD: 8.099 µM
HepG2 cells [7]
  pod_httr_bifrost PoD: 7.6781 µM
  podl_path_minbmd PoD: 30.2909 µM
HepG2 cells [8]
  pod_cell_stress PoD: 8.518 µM
[9]
  Specific binding: -14.3%
[10]; IPP screening at 100 uM, control α-dendrotoxin
  Specific binding: -8.5%
MCF7 cells
  pod_httr_bifrost PoD: 42.8965 µM
  podl_path_minbmd PoD: 150.462 µM
[11]
  Specific binding: 32.1%
[12]; Dermal, 10%, Gel, Exp3
  risk: 1
[12]; Oral, High therapeutic, 1200mg/day, Tablet, Exp1
  risk: 1
[12]; Oral, Low therapeutic, 200mg/day, Tablet, Exp2
  risk: 1
monkey
  PoD (NOAEL): 40 mg/kg bw/day
[13]
  Specific binding: 5.3%

## CC(=O)CC(c1ccccc1)c1c([O-])c2ccccc2oc1=O.[Na+] (centres unmarked) [Warfarin, Sodium 2-oxo-3-(3-oxo-1-phenylbutyl)-2H-1-benzopyran-4-olate]
[1]
  IPP screening %, Coactivator recruitment: -2.0%
Tubulin (r)
  IPP screening %, Specific binding: 3.0%
[14]
  underprediction of the L3 result at L2 (Cmax): ≥ 5 fold
[2]; [31]
  Reported AUC0-t: 54.3 µg·h/mL
  Reported cmax: 1.305 µg/mL
  Reported tmax: 1 h
[2]; read-out: typical Cmax reported in the literature, human, ref literature, not specified
  Cmax: 0.6 to 6 µM
[15]
  Specific binding: -14.2%
[3]
  Specific binding: 7.9%
[4]; PBK input, level L2, ref [10]
  Fup: 2%
[16]
  Intrinsic Liver Clearance: 14.41 L/h
HepaRG cells; BMDExpress2, highest of the chemical's PoDs
  HepaRG minimum pathway BMDL: 259 µM
HepaRG cells
  pod_httr_bifrost PoD: 13.5544 µM
  podl_path_minbmd PoD: 258.74 µM
HepaRG cells; lowest of the chemical's PoDs
  HepaRG BIFROST global PoD: 13.6 µM
HepG2 cells [7]
  pod_httr_bifrost PoD: 14.2833 µM
  podl_path_minbmd PoD: 164.109 µM
HepG2 cells [8]
  pod_cell_stress PoD: 13.7726 µM
[9]; IPP screening at 100 uM, control nitrendipine
  Specific binding: -1.9%
[10]
  Specific binding: 7.0%
MCF7 cells
  pod_httr_bifrost PoD: 19.7041 µM
  podl_path_minbmd PoD: 167.012 µM
[11]; IPP screening at 100 uM, control veratridine
  Specific binding: 0.7%
[17]
  IPP screening %, Specific binding: 10.1%
[13]
  Specific binding: 0.6%
[18]; read-out: IC50 on the VKORC1 enzyme, lower end of literature range
  IC50: 24.7 nM
[18]; read-out: IC50 on the VKORC1 enzyme, upper end of literature range
  IC50: 4000 nM
